Assay results as given in US20030108619A1, “Bone-strengthening agents, food compositions for strengthening bone and feed compositions for strengthening bone” (priority 2000, published 2003).

How the values were obtained:
femora [1] = test: Dry weight of femora, Example 1; assay type: in vivo, rat
Procedure: (§1) 5-weeks old female Wistar rats (Convention) obtained from Japan SLC, Inc. (Hamamatsu, Japan) were used.
(§2) 2. CPP-administered group: Basic feed+CPP (40 mg/100 g body weight)
(§3) 3. Genistein-administered group: Basic feed+genistein (50 μg/100 g body weight)
(§4) 4. CPP+genistein-administered group: Basic feed+CPP (40 mg/100 g body weight)+genistein (50 μg/100 g body weight)
As the CPP, a solution of CPP-III (casein phosphopeptide content 85%) manufactured by Meiji Seika Kaisha, Ltd., dissolved in distilled water was used. As the genistein, a reagent (manufactured by Sigma Chemical Company in U.S. A.) extracted from soybean and highly purified, dissolved in a 10% ethanol solution was used. […]
(§5) After washing the extracted femora in a cold 0.25 M sucrose solution to remove a soft tissue and drying it in a drier at 100° C. for about 16 hours, the dry weight of the femora was measured. After the measurement, the extracted femora were divided into diaphysis (cortical bone) and metaphysis (trabecular bone) and the amount of calcium in each of them was measured. […] The solutions were used as sample solutions and the amount of calcium therein was determined by using an atomic absorption spectrophotometer. […]
(§6) Significant tests of respective measured values were performed by using Student's t-test. […]

femora [2] = test: Amount of calcium in femora, Example 1; assay type: in vivo, rat; settings: 5-weeks old rats
Procedure: as §1, §2, §3, §4
(§7) As the CPP, a solution of CPP-III (casein phosphopeptide content 85%) manufactured by Meiji Seika Kaisha, Ltd., dissolved in distilled water was used. As the genistein, a reagent (manufactured by Sigma Chemical Company in U.S. A.) extracted from soybean and highly purified, dissolved in a 10% ethanol solution was used.
(§8) Animal groups each consisting of five animals were fed with the basic feed under constant temperature and constant humidity conditions of room temperature 25° C., and 55% humidity. In addition, the control group was administered with 1 ml/100 g body weight of purified distilled water and the other groups were each orally administered with CPP and/or genistein in the above-mentioned amounts once a day for 14 days by using a stomach tube. After 24 hours from the last administration, the rats were sacrificed and the femora were extracted. The extracted femora were used for the measurement of bone components as shown below.
(§9) After washing the extracted femora in a cold 0.25 M sucrose solution to remove a soft tissue and drying it in a drier at 100° C. for about 16 hours, the dry weight of the femora was measured. After the measurement, the extracted femora were divided into diaphysis (cortical bone) and metaphysis (trabecular bone) and the amount of calcium in each of them was measured. That is, the obtained diaphysial tissue and metaphysial tissue of the femora were each charged in a test tube, to which was added 3 ml of concentrated nitric acid to decompose them at 120° C. for 24 hours. The solutions were used as sample solutions and the amount of calcium therein was determined by using an atomic absorption spectrophotometer. The amounts of calcium were expressed in terms of mg per 1 g of the dry weight of the bone tissue.
(§10) Significant tests of respective measured values were performed by using Student's t-test. Values with a risk factor of 5% or less were taken as significant.

[3] = system: bone alkaline phosphatase; test: Activity of femoral alkaline phosphatase, Example 1; assay type: in vivo, rat; settings: 5-weeks old rats
Procedure: as §1, §2, §3, §4, §7, §8
(§11) The diaphysial tissue and metaphysial tissue of the femora obtained as described above were each dipped in 3 ml of a cold 6.5 mM barbital buffer (pH 7.4) and cut into small pieces and homogenized by using a Potter-Elvehjem homogenizer followed by ultrasonic treatment for 60 seconds for crushing. Further, the homogenate was centrifuged for 5 minutes at 600×g and the supernatant fraction was used as a crude enzyme solution.
(§12) The activity of bone alkaline phosphatase was measured in accordance with the method of Walter and Schutt (Bergmeyer H. U. (ed.). Methods of Enzymatic Analysis, Vol. 1-2, Academic Press, New York, pp. 856-860, 1974). The enzymatic reaction was initiated by adding 0.05 ml of the above-mentioned crude enzyme solution to 2 ml of 0.1M diethanolamine hydrochloride buffer (pH 9.8) containing disodium p-nitrophenyiphosphate as a substrate. The reaction was performed by incubation at 37° C. for 30 minutes. The reaction was terminated by adding 10 ml of 0.05N NaOH and the activity was expressed in terms of the amount (μmol) of free p-nitrophenol per 1 minute per the mass (mg) of the enzyme protein used. The concentration of the protein was measured in accordance with the method of Lowry et al. (J. Biol. Chem., 193: 265-273, 1951).
as §10

femora [4] = test: Amount of DNA in femora, Example 1; assay type: in vivo, rat; settings: 5-weeks old rats
Procedure: (§13) 5-weeks old female Wistar rats (Convention) obtained from Japan SLC, Inc. (Hamamatsu, Japan) were used. 2. CPP-administered group: Basic feed+CPP (40 mg/100 g body weight) 3. Genistein-administered group: Basic feed+genistein (50 μg/100 g body weight) 4. CPP+genistein-administered group: Basic feed+CPP (40 mg/100 g body weight)+genistein (50 μg/100 g body weight) As the CPP, a solution of CPP-III (casein phosphopeptide content 85%) manufactured by Meiji Seika Kaisha, Ltd., dissolved in distilled water was used. As the genistein, a reagent (manufactured by Sigma Chemical Company in U.S. A.) extracted from soybean and highly purified, dissolved in a 10% ethanol solution was used. Animal groups each consisting of five animals were fed with the basic feed under constant temperature and constant humidity conditions of room temperature 25° C., and 55% humidity. In addition, the control group was administered with 1 ml/100 g body weight of purified distilled water and the other groups were each orally administered with CPP and/or genistein in the above-mentioned amounts once a day for 14 days by using a stomach tube. After 24 hours from the last administration, the rats were sacrificed and the femora were extracted. The extracted femora were used for the measurement of bone components as shown below. The diaphysial tissue and metaphysial tissue of the femora thus obtained were each crushed in 4.0 ml of a cold 0.1 N NaOH solution after homogenization of the bone tissue, shaken at 4° C. for 24 hours and extracted. After the alkali extraction, centrifugation treatment was performed at 1,000×g for 5 minutes and the supernatant fraction was used as a sample for the measurement of DNA. The measurement of the amount of DNA was performed in accordance with the method of Ceriotti (J. Biol. Chem., 214: 39-77, 1955). To a test tube containing 2.0 ml of a sample were added 1.0 ml of concentrated hydrochloric acid and 1.0 ml of a 0.04% indole solution and the test tube was shut with an aluminum cap, followed by heating on a boiling water bath for 10 minutes and then quenched on ice to terminate the reaction. Extraction with 4.0 ml of chloroform for 3 to 4 minutes was repeated several times and the amount of DNA was measured on a spectrophotometer (490 nm). The amount of DNA was calculated per wet weight (g) of bone tissue. Significant tests of respective measured values were performed by using Student's t-test. Values with a risk factor of 5% or less were taken as significant.

femora [5] = test: Dry weight of femora, Example 2; assay type: in vivo, rat
Procedure: as §2, §3, §4, §7
Animal groups each consisting of five animals were fed with the basic feed under constant temperature and constant humidity conditions of room temperature 25° C., and 55% humidity. […]
as §5, §6

femora [6] = test: Amount of calcium in femora, Example 2; assay type: in vivo, rat; settings: 50-weeks old rats
Procedure: as §2, §3, §4, §7, §8, §9, §10
1) The materials and methods in Example 2 were the same as in Example 1 except that 50-weeks old normal female Wistar rats obtained from Japan SLC, Inc. (Hamamatsu, Japan) were used as test animals.

[7] = system: bone alkaline phosphatase; test: Activity of femoral alkaline phosphatase, Example 2; assay type: in vivo, rat; settings: 50-weeks old rats
Procedure: as §2, §3, §4, §7, §8, §11, §12
Significant tests of respective measured values were performed by using Student's t-test. Values with a risk factor of 5% or less were taken as significant. […]

femora [8] = test: Amount of DNA in femora, Example 2; assay type: in vivo, rat; settings: 50-weeks old rats
Procedure: as §13, with “2.” for “5-weeks old female Wistar rats (Convention) obtained from Japan SLC, Inc. (Hamamatsu, Japan) were used. 2.”, “significant. 1) The materials and methods in Example 2 were the same as in Example 1 except that 50-weeks old normal female Wistar rats obtained from Japan SLC, Inc. (Hamamatsu, Japan) were used as test animals.” for “significant.”

osteoclasts [9] = settings: Biol. Pharm. Bull., 22, 805-809, 1999; cited from earlier work
osteoclasts [10] = settings: culture system using metaphysial tissue in the femora of old rats; Biochem. Pharmacol., 55: 71-76, 1998; cited from earlier work
osteoblasts = settings: Res. Exp. Med. 197: 101-107, 1997; cited from earlier work

For `O=c1c(-c2ccc(O)cc2)coc2cc(O)cc(O)c12` [Genistein, genistein], the “Dry weight of femora” value (femora [1]; 5-weeks old female Wistar rats, oral once a day for 14 days, CPP 40 mg/100 g, genistein 50 μg/100 g body weight) was 230.4 ± 1.20 mg, the “Dry weight of femora as compared with that of the control group” value (femora [1]; 5-weeks old rats, oral 14 days) was 1.12 times and the “Amount of calcium in the diaphysis as compared with that of the control group” value (femora [2]; diaphysis) was 1.12 times. The “Amount of calcium in the metaphysis as compared with that of the control group” value (femora [2]; metaphysis) was 1.07 times, the “Bone calcium, Diaphysis” value (femora [2]; oral 14 days, diaphysis) was 225.1 ± 3.23 mg/g dry weight and the “Bone calcium, Metaphysis” value (femora [2]; oral 14 days, metaphysis) was 204.1 ± 3.56 mg/g dry weight. For the same compound, the “Activity of femoral alkaline phosphatase in the diaphysis as compared with that of the control group” value ([3]; diaphysis) was 1.04 times, the “Activity of femoral alkaline phosphatase in the metaphysis as compared with that of the control group” value ([3]; metaphysis) was 1.04 times and the “The activity of alkaline phosphatase, Diaphysis” value ([3]; oral 14 days, diaphysis) was 1.809 ± 0.014 μmol/min/mg protein. The “The activity of alkaline phosphatase, Metaphysis” value ([3]; oral 14 days, metaphysis) was 1.853 ± 0.017 μmol/min/mg protein, the “Amount of DNA in the diaphysis as compared with that of the control group” value (femora [4]; diaphysis) was 1.06 times and the “Amount of DNA in the metaphysis as compared with that of the control group” value (femora [4]; metaphysis) was 1.09 times. For the same compound, the “Amount of DNA, Diaphysis” value (femora [4]; oral 14 days, diaphysis) was 1.895 ± 0.013 mg/g wet weight of bone, the “Amount of DNA, Metaphysis” value (femora [4]; oral 14 days, metaphysis) was 2.894 ± 0.034 mg/g wet weight of bone and the “Dry weight of femora” value (femora [5]; 50-weeks old female Wistar rats, oral once a day for 14 days, CPP 40 mg/100 g, genistein 50 μg/100 g body weight) was 475.3 ± 8.35 mg. For the same compound, the “Dry weight of femora as compared with that of the control group” value (femora [5]; 50-weeks old rats, oral 14 days) was 1.08 times, the “Amount of calcium in the diaphysis as compared with that of the control group” value (femora [6]; diaphysis) was 1.07 times and the “Amount of calcium in femora in the metaphysis as compared with that of the control group” value (femora [6]; metaphysis) was 1.08 times. The “Amount of bone calcium, Diaphysis” value (femora [6]; oral 14 days, diaphysis) was 229.2 ± 3.4 mg/g dry weight, the “Amount of bone calcium, Metaphysis” value (femora [6]; oral 14 days, metaphysis) was 202.1 ± 3.8 mg/g dry weight and the “Activity of femoral alkaline phosphatase in the diaphysis as compared with that of the control group” value ([7]; diaphysis) was 1.12 times. The “Activity of femoral alkaline phosphatase in the metaphysis as compared with that of the control group” value ([7]; metaphysis) was 1.12 times, the “The activity of alkaline phosphatase, Diaphysis” value ([7]; oral 14 days, diaphysis) was 0.653 ± 0.019 μmol/min/mg protein and the “The activity of alkaline phosphatase, Metaphysis” value ([7]; oral 14 days, metaphysis) was 0.744 ± 0.020 μmol/min/mg protein. The “Amount of DNA in the diaphysis as compared with that of the control group” value (femora [8]; diaphysis) was 1.14 times, the “Amount of DNA in the metaphysis as compared with that of the control group” value (femora [8]; metaphysis, printed under [Amount of DNA in Femora]) was 1.05 times and the “Amount of DNA, Diaphysis” value (femora [8]; oral 14 days, diaphysis) was 1.391 ± 0.043 mg/g wet weight of bone. The “Amount of DNA, Metaphysis” value (femora [8]; oral 14 days, metaphysis) was 2.836 ± 0.041 mg/g wet weight of bone, the “Effect of inhibiting the function of osteoclasts, potency relative to daidzein” value (osteoclasts [9]) was 10 times and the “Bone resorption by osteoclasts” value (osteoclasts [10]) was “directly inhibits the bone resorption by osteoclasts”. For the same compound, the “Amount of DNA (index of increase in bone mineral content and cell growth by osteoblasts)” value (osteoblasts) was “causes an increase in the amount of DNA”.
